According to US20130289471A1, “GAS BASED WOUND AND TISSUE THERAPEUTICS” (Virginia Commonwealth University, priority 2008, published 2013):

Experiments:
[1] = Physical properties of F-tert-butylcyclohexane; format: physicochemical; set-up: Kinematic Viscosity: unit not given here
Excerpt: Oxycyte® is based on the perfluorocarbon F-tert-butylcyclohexane, a saturated alicyctic PFC (molecular formula C10F20) and can be used as a PFC composition in the methods and uses described herein. Physical properties of F-tert-butylcyclohexane are as follows: […]

[2] = Lipophilicity of the preferred PFC (statement); format: physicochemical
Excerpt: Being that the PFCs are slightly lipophilic at body temperature and would help in the transport of oxygen into and removal of carbon dioxide from the skin tissue, PFCs can accelerate the healing process of a wound in a tissue.

Density [1]: 1.97 g/mL
Kinematic Viscosity [1]: 5.378
Vapor Pressure @ 25° C. ([1]; 25° C.): 3.8 mmHg
Vapor Pressure @ 37° C. ([1]; 37° C.): 4.4 mmHg
lipophilicity ([2]; at body temperature): only slightly lipophilic
lipophilicity ([2]; at room temperature): not lipophilic
SMILES: FC(F)(F)C(C(F)(F)F)(C(F)(F)F)C1(F)C(F)(F)C(F)(F)C(F)(F)C(F)(F)C1(F)F [F-tert-butylcyclohexane, perfluoro-tert-butylcyclohexane]
